In brackets after ≈: the same amount, converted by molar mass.

Data on one molecule can be found in patent US20210353590A1 (priority 2020, published 2021).

Data set [1] can be described thus: Pharmacokinetic analysis. To be noted: rat. Here is the method:
The photoperiod of 12 h was maintained. […] 120 male rats were randomly divided into 30 groups of 4 animals each corresponding to the time points of blood collection. […] Rats were fasted (Approximately 4 h) before administration of drug. On the other hand, AND at the dose of 10-mg/kg was administered intravenously (i.v.) for comparative studies. Plasma concentration data was analyzed and computed for pharmacokinetic parameters. The following pharmacokinetic parameters were assessed: ke (h), t½ (h), Cmax (μg/ml), AUClast (h.μg/ml), AUCinf (h.μg/ml), MRT (h), CLTotal (L/h), Vd (L) and F%.

For data set [2] the following is noted: after 2 h, simulated intestinal fluid pH 7.2, 37±2° C., 50 rpm, 100 mg AND or equivalent.
Description: The temperature of SIF was maintained at 37±2° C. At specified time intervals, 2 ml of SIF was taken and replaced with identical volume. Subsequently, all the samples were filtered through 0.22 μm membrane filter and assayed for drug content at 225 nm.
Data set [3] is described as follows: Solubility analysis by saturated solution method. To be noted: 37±1° C., 24 hrs, 100 rpm.
Description: After that, suspension was filtered and 0.1 ml of the filtrate was diluted with water up to 1 ml. The contents in the aliquot were measured by HPLC method (Sajeeb BK, 2015). All measurements were carried out in triplicate (n=3).

In the case of `C=C1CC[C@@H]2[C@](C)(CO)[C@H](O)CC[C@@]2(C)[C@@H]1C/C=C1/C(=O)OC[C@H]1O` [Andrographolide], in data set [1] (Oral, 100 mg/kg), the AUC inf is 1845.58 ± 305.77 µg·h/mL, the AUC last was determined as 1223.6 ± 143.09 µg·h/mL, the CLTotal was found to be 0.055 ± 0.008 L/h and the Cmax is 239.6 ± 75.37 µg/mL. In data set [1] (Oral, 100 mg/kg), this molecule showed a Vd of 0.468 ± 0.060 L, a t1/2 of 5.92 ± 0.21 h and a tmax of 2 h. Also, the “F (bioavailability)” value in data set [1] (Oral, 100 mg/kg, versus AND i.v. 10 mg/kg) was 15.87±3.84%. Besides, in data set [1] (i.v., 10 mg/kg), the AUC inf came out at 891.08 ± 179.75 µg·h/mL, the AUC last was determined as 801.14 ± 181.07 µg·h/mL, the CLTotal is given as 0.011 ± 0.002 L/h and the mean residence time MRT came out at 1.11 ± 0.04 h. In addition, in data set [1] (i.v., 10 mg/kg), the Vd is listed as 0.013 ± 0.003 L and the t1/2 turned out to be 0.859 ± 0.031 h. Besides, the MRT in data set [1] (in vivo, po, 100 mg/kg) is 1.49 ± 0.0.085 h. Also, the release in data set [2] is 27.89±1.32%. Besides, the “solubility in aqueous phase” value in data set [3] was found to be 6.39 ± 0.47 µg/mL (≈ 18.2 µM).
